Experimental data taken from ChEMBL document CHEMBL5335843, “Application of tobramycin benzyl ether as an antibiotic adjuvant capable of sensitizing multidrug-resistant Gram-negative bacteria to rifampicin” (2024).
In brackets after ≈: the same amount, converted by molar mass.

Assays:
Type in all cases: functional
Acinetobacter baumannii [1] = experiment: Antibacterial activity against Acinetobacter baumannii ATCC 17978 assessed as inhibition of bacterial growth incubated for 18 hrs by two fold broth microdilution assay
Escherichia coli [2] = experiment: Antibiotic adjuvant activity against Escherichia coli ATCC 25922 assessed as rifampicin MIC incubated for 18 hrs in presence of Rifampicin by two fold broth microdilution checkerboard assay
Pseudomonas aeruginosa [3] = experiment: Antibiotic adjuvant activity against Pseudomonas aeruginosa PAO1 assessed as fold potentiation incubated for 18 hrs in presence of Rifampicin by two fold broth microdilution checkerboard assay
Acinetobacter baumannii [4] = experiment: Antibiotic adjuvant activity against Acinetobacter baumannii ATCC 17978 assessed as fold potentiation incubated for 18 hrs in presence of Rifampicin by two fold broth microdilution checkerboard assay
Acinetobacter baumannii [5] = experiment: Antibiotic adjuvant activity against Acinetobacter baumannii ATCC 17978 assessed as rifampicin MIC incubated for 18 hrs in presence of Rifampicin by two fold broth microdilution checkerboard assay
Escherichia coli [6] = experiment: Antibacterial activity against Escherichia coli ATCC 25922 assessed as inhibition of bacterial growth incubated for 18 hrs by two fold broth microdilution assay
Pseudomonas aeruginosa [7] = experiment: Antibacterial activity against Pseudomonas aeruginosa PAO1 assessed as inhibition of bacterial growth incubated for 18 hrs by two fold broth microdilution assay
Pseudomonas aeruginosa [8] = experiment: Antibacterial activity against multi-drug resistant Pseudomonas aeruginosa clinical isolate PA114228 assessed as inhibition of bacterial growth incubated for 18 hrs by two fold broth microdilution assay
Pseudomonas aeruginosa [9] = experiment: Antibacterial activity against multi-drug resistant Pseudomonas aeruginosa clinical isolate PA101243 assessed as inhibition of bacterial growth incubated for 18 hrs by two fold broth microdilution assay
Escherichia coli [10] = experiment: Antibacterial activity against multi-drug resistant Escherichia coli clinical isolate EC107115 assessed as inhibition of bacterial growth incubated for 18 hrs by two fold broth microdilution assay
Pseudomonas aeruginosa [11] = experiment: Antibacterial activity against multi-drug resistant Pseudomonas aeruginosa clinical isolate PA262 assessed as inhibition of bacterial growth incubated for 18 hrs by two fold broth microdilution assay
Pseudomonas aeruginosa [12] = experiment: Antibacterial activity against multi-drug resistant Pseudomonas aeruginosa clinical isolate PA259 assessed as inhibition of bacterial growth incubated for 18 hrs by two fold broth microdilution assay
Pseudomonas aeruginosa [13] = experiment: Antibacterial activity against multi-drug resistant Pseudomonas aeruginosa clinical isolate PA264 assessed as inhibition of bacterial growth incubated for 18 hrs by two fold broth microdilution assay
Escherichia coli [14] = experiment: Antibacterial activity against multi-drug resistant Escherichia coli clinical isolate EC94474 assessed as inhibition of bacterial growth incubated for 18 hrs by two fold broth microdilution assay
Escherichia coli [15] = experiment: Antibiotic adjuvant activity against Escherichia coli ATCC 25922 assessed as fold potentiation incubated for 18 hrs in presence of Rifampicin by two fold broth microdilution checkerboard assay
Enterococcus faecium [16] = experiment: Antibacterial activity against Enterococcus faecium 114278 assessed as inhibition of bacterial growth incubated for 18 hrs by two fold broth microdilution assay
Enterococcus faecium [17] = experiment: Antibacterial activity against Enterococcus faecium 128149 assessed as inhibition of bacterial growth incubated for 18 hrs by two fold broth microdilution assay
Escherichia coli [18] = experiment: Antibacterial activity against multi-drug resistant Escherichia coli clinical isolate 107115 assessed as inhibition of bacterial growth incubated for 18 hrs by two fold broth microdilution assay
Pseudomonas aeruginosa [19] = experiment: Antibacterial activity against multi-drug resistant Pseudomonas aeruginosa clinical isolate 114228 assessed as inhibition of bacterial growth incubated for 18 hrs by two fold broth microdilution assay
Staphylococcus aureus = experiment: Antibacterial activity against methicilin-resistant Staphylococcus aureus assessed as inhibition of bacterial growth incubated for 18 hrs by two fold broth microdilution assay
Acinetobacter baumannii [20] = experiment: Antibacterial activity against multi-drug resistant Acinetobacter baumannii clinical isolate AB027 assessed as inhibition of bacterial growth incubated for 18 hrs by two fold broth microdilution assay
Acinetobacter baumannii [21] = experiment: Antibacterial activity against multi-drug resistant Acinetobacter baumannii clinical isolate 110193 assessed as inhibition of bacterial growth incubated for 18 hrs by two fold broth microdilution assay
Acinetobacter baumannii [22] = experiment: Antibacterial activity against multi-drug resistant Acinetobacter baumannii clinical isolate 92247 assessed as inhibition of bacterial growth incubated for 18 hrs by two fold broth microdilution assay
Pseudomonas aeruginosa [23] = experiment: Antibacterial activity against multi-drug resistant Pseudomonas aeruginosa clinical isolate 101243 assessed as inhibition of bacterial growth incubated for 18 hrs by two fold broth microdilution assay
Escherichia coli [24] = experiment: Antibacterial activity against multi-drug resistant Escherichia coli clinical isolate 94474 assessed as inhibition of bacterial growth incubated for 18 hrs by two fold broth microdilution assay
Acinetobacter baumannii [25] = experiment: Antibacterial activity against multi-drug resistant Acinetobacter baumannii clinical isolate LAC-4 assessed as inhibition of bacterial growth incubated for 18 hrs by two fold broth microdilution assay
Escherichia coli [26] = experiment: Antibacterial activity against multi-drug resistant Escherichia coli clinical isolate 94393 assessed as inhibition of bacterial growth incubated for 18 hrs by two fold broth microdilution assay
Acinetobacter baumannii [27] = experiment: Antibacterial activity against multi-drug resistant Acinetobacter baumannii clinical isolate AB031 assessed as inhibition of bacterial growth incubated for 18 hrs by two fold broth microdilution assay

NC[C@H]1O[C@H](O[C@H]2[C@H](OC(=O)Nc3ccc(Cl)cc3)[C@@H](O[C@H]3O[C@H](COC(=O)Nc4ccc(Cl)cc4)[C@@H](OC(=O)Nc4ccc(Cl)cc4)[C@H](N)[C@H]3OC(=O)Nc3ccc(Cl)cc3)[C@H](N)C[C@@H]2N)[C@H](N)C[C@@H]1OC(=O)Nc1ccc(Cl)cc1.O=C(O)C(F)(F)F
MIC (Acinetobacter baumannii [1]): 32 µg/mL
MIC (Escherichia coli [2]): 0.5 µg/mL
fold change (FC) (Pseudomonas aeruginosa [3]): 1
fold change (FC) (Acinetobacter baumannii [4]): 16
MIC (Acinetobacter baumannii [5]): 0.004 µg/mL
MIC (Escherichia coli [6]): 32 µg/mL
MIC (Pseudomonas aeruginosa [7]): 64 µg/mL

C[C@H]1c2cccc(O)c2C(=O)C2=C(O)[C@]3(O)C(=O)C(C(N)=O)=C(O)[C@@H](N(C)C)[C@@H]3[C@@H](O)[C@@H]21.O [DOXYCYCLINE]
MIC (Pseudomonas aeruginosa [8]): > 128 µg/mL
MIC (Pseudomonas aeruginosa [9]): > 128 µg/mL
MIC (Escherichia coli [10]): 128 µg/mL
MIC (Pseudomonas aeruginosa [11]): 512 µg/mL
MIC (Pseudomonas aeruginosa [12]): 256 µg/mL
MIC (Pseudomonas aeruginosa [13]): 64 µg/mL
MIC (Escherichia coli [14]): 64 µg/mL

Cl.NC[C@H]1O[C@H](O[C@H]2[C@H](OCc3ccccc3)[C@@H](OCc3ccccc3)[C@H](N)C[C@@H]2N)[C@H](N)C[C@@H]1OCc1ccccc1
fold change (FC) (Escherichia coli [15]): 512
MIC (Acinetobacter baumannii [1]): > 128 µg/mL
MIC (Escherichia coli [2]): 0.0312 µg/mL
fold change (FC) (Pseudomonas aeruginosa [3]): 4
fold change (FC) (Acinetobacter baumannii [4]): 4
MIC (Acinetobacter baumannii [5]): 1 µg/mL
MIC (Escherichia coli [6]): > 128 µg/mL
MIC (Pseudomonas aeruginosa [7]): > 128 µg/mL

NC[C@H]1O[C@H](O[C@H]2[C@H](O)[C@@H](O[C@H]3O[C@H](CO)[C@@H](O)[C@H](N)[C@H]3O)[C@H](N)C[C@@H]2N)[C@H](N)C[C@@H]1O [TOBRAMYCIN]
MIC (Acinetobacter baumannii [1]): 0.5 µg/mL (≈ 1.07 µM)
MIC (Escherichia coli [6]): 2 µg/mL (≈ 4.28 µM)
MIC (Pseudomonas aeruginosa [7]): 1 µg/mL (≈ 2.14 µM)

Cl.NC[C@H]1O[C@H](O[C@H]2[C@H](OCc3ccc(Cl)cc3)[C@@H](O[C@H]3O[C@H](COCc4ccc(Cl)cc4)[C@@H](OCc4ccc(Cl)cc4)[C@H](N)[C@H]3OCc3ccc(Cl)cc3)[C@H](N)C[C@@H]2N)[C@H](N)C[C@@H]1OCc1ccc(Cl)cc1
MIC (Acinetobacter baumannii [1]): > 128 µg/mL
MIC (Escherichia coli [6]): > 128 µg/mL
MIC (Pseudomonas aeruginosa [7]): > 128 µg/mL

CO[C@H]1/C=C/O[C@@]2(C)Oc3c(C)c(O)c4c(O)c(c(/C=N/N5CCN(C)CC5)c(O)c4c3C2=O)NC(=O)/C(C)=C\C=C\[C@H](C)[C@H](O)[C@@H](C)[C@@H](O)[C@@H](C)[C@H](OC(C)=O)[C@@H]1C [RIFAMPIN]
MIC (Enterococcus faecium [16]): 4 µg/mL (≈ 4.86 µM)
MIC (Enterococcus faecium [17]): 8 µg/mL (≈ 9.72 µM)
MIC (Escherichia coli [18]): 128 µg/mL (≈ 156 µM)
MIC (Pseudomonas aeruginosa [19]): 16 µg/mL (≈ 19.4 µM)
MIC (Staphylococcus aureus): 256 µg/mL (≈ 311 µM)
MIC (Acinetobacter baumannii [20]): 8 µg/mL (≈ 9.72 µM)
MIC (Acinetobacter baumannii [21]): 4 µg/mL (≈ 4.86 µM)
MIC (Pseudomonas aeruginosa [11]): 512 µg/mL (≈ 622 µM)
MIC (Pseudomonas aeruginosa [12]): 16 µg/mL (≈ 19.4 µM)
MIC (Acinetobacter baumannii [22]): 4 µg/mL (≈ 4.86 µM)
MIC (Pseudomonas aeruginosa [23]): 4 µg/mL (≈ 4.86 µM)
MIC (Pseudomonas aeruginosa [13]): 16 µg/mL (≈ 19.4 µM)
MIC (Escherichia coli [24]): 8 µg/mL (≈ 9.72 µM)
MIC (Acinetobacter baumannii [25]): 2 µg/mL (≈ 2.43 µM)
MIC (Escherichia coli [26]): 32 µg/mL (≈ 38.9 µM)
MIC (Acinetobacter baumannii [27]): 2 µg/mL (≈ 2.43 µM)

CC(C)CCOC[C@H]1O[C@H](O[C@@H]2[C@@H](OCCC(C)C)[C@H](O[C@H]3O[C@H](CN)[C@@H](OCCC(C)C)C[C@H]3N)[C@@H](N)C[C@H]2N)[C@H](OCCC(C)C)[C@@H](N)[C@@H]1OCCC(C)C.Cl
MIC (Acinetobacter baumannii [1]): 16 µg/mL
fold change (FC) (Pseudomonas aeruginosa [3]): 16
fold change (FC) (Acinetobacter baumannii [4]): 2048
MIC (Acinetobacter baumannii [5]): 0.004 µg/mL
MIC (Escherichia coli [6]): 4 µg/mL
MIC (Pseudomonas aeruginosa [7]): 16 µg/mL

COLISTIN
MIC (Acinetobacter baumannii [1]): 0.5 µg/mL
MIC (Escherichia coli [6]): 0.5 µg/mL
MIC (Pseudomonas aeruginosa [7]): 1 µg/mL
